Drawing on ChEMBL document CHEMBL5380871, this text covers Ki and IC50 for two compounds.

Assay [1] addresses T1, Complement C1r subcomponent (Homo sapiens, UniProt P00736).
T1 sequence (P00736 whole entry): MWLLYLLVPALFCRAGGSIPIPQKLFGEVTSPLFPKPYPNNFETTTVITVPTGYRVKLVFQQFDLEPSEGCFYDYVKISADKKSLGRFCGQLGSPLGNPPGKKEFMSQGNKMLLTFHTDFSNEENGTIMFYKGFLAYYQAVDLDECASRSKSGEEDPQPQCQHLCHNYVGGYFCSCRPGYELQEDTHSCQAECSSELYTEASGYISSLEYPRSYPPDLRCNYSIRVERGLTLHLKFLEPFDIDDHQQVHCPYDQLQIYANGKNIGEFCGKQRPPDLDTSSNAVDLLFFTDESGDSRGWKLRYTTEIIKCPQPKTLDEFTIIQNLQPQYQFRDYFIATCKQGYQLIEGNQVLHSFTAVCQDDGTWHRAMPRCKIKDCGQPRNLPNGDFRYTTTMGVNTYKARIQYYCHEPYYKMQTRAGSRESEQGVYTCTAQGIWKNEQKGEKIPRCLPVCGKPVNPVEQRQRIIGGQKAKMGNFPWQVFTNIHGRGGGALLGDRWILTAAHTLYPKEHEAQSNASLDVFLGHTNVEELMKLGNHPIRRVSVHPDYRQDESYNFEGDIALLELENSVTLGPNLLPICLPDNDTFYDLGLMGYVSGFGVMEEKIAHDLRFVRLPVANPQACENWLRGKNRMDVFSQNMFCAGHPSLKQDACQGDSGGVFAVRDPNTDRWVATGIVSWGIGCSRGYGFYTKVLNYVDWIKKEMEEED
Put plainly: Binding affinity to C1R (unknown origin) assessed as inhibition constant.

A further assay addresses Trypsin (Homo sapiens, UniProt P07477+P07478+P35030). The assay is described as follows: Binding affinity to trypsin (unknown origin) assessed as inhibition constant. In kind it is protein assay.
The next assay concerns the target Prothrombin (Homo sapiens, UniProt P00734). Put plainly: Binding affinity to thrombin (unknown origin) assessed as inhibition constant.
In another assay the target is Complement factor D (Homo sapiens, UniProt P00746). Put plainly: Binding affinity to factor D (unknown origin) assessed as inhibition constant.
The target of assay [2] is T2, Complement C1s subcomponent (Homo sapiens, UniProt P09871).
T2 sequence (P09871 whole entry): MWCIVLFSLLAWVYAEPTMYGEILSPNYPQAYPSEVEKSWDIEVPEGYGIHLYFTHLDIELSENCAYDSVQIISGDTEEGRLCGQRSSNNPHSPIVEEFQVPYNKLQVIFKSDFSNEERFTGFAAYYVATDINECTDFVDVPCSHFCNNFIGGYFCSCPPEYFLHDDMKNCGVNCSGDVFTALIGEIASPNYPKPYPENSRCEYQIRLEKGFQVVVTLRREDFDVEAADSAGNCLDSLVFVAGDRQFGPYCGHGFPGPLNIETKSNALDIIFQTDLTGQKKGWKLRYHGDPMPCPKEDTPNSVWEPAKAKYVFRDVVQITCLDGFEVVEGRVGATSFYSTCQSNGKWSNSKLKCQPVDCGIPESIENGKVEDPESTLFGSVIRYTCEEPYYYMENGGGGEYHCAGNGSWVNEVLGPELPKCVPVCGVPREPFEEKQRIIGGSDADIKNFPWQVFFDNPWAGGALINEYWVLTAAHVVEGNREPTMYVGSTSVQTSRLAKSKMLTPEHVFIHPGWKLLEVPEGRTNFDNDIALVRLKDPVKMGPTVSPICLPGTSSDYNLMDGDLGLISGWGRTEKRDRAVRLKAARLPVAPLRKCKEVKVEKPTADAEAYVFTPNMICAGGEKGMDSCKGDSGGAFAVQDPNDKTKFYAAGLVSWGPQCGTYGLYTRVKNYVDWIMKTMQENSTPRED
The assay is described as follows: Binding affinity to human C1S assessed as inhibition constant.

Assay [3] in a line: Inhibition of human recombinant kallikrein using Pro-Phe-Arg-AMC as substrate pretreated with compound followed by substrate addition incubated for 60 mins by multilabel plate reader method.

Complement factor D, sequence (P00746 whole entry): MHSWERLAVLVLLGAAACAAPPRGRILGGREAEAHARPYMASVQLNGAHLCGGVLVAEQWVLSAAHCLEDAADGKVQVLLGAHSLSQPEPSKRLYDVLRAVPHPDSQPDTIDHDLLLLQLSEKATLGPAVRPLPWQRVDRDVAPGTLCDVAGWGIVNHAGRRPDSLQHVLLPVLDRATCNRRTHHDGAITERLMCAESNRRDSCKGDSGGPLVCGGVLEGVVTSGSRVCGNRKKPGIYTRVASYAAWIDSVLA

On to `CCCc1c(-c2csc(-c3cc(C(=N)N)sc3SC)n2)cnn1-c1ccccn1`, for which the Ki (commonly a measure of affinity in units of concentration, obtained from inhibition or displacement) was at least 50 µM in assay [1]; 0.18 µM at Trypsin; over 50 µM on Prothrombin; 3.7 µM at Complement factor D; 0.07 µM in assay [2].
For `Cc1cc([C@H]2CN(c3cc(F)c4c(N)nncc4c3)CCN2c2cccc(F)c2)no1`, the IC50 (usually the concentration that gives 50% inhibition) in assay [3] was over 30 µM.
